Assay results as given in patent publication US20220313670A1, “Methods Of Treating Fabry Disease In Patients Having Renal Impairment” (Amicus Therapeutics, Inc., priority 2019, published 2022).
“And” between values parts separate entries of the source, which are not always exact repeats. Equal entries are not always repeated. Where two headings read alike, the source gives them in different places.

What was measured:
[1] = Phase 1 single-dose pharmacokinetics and safety study of migalastat HCl in non-Fabry subjects with renal impairment (Example 1, AT1001-015); format: in vivo, human; details: for AUC0-∞: individual subjects, in ng·h/mL; for concentration at 96 h: read-out: C96 h, Mean; for Comparison to Example 1 Moderate Impairment (migalastat concentration): non-Fabry subjects with moderate renal impairment, in ng/mL (unit assumed); for Comparison to Example 1 Severe Impairment (migalastat concentration): non-Fabry subjects with severe renal impairment, (coefficient of variation)
Protocol: The eGFR estimated by the Cockcroft-Gault equation per the FDA Guidance for renal impairment studies.
Volunteers were enrolled into two cohorts stratified for renal function calculated using the Cockcroft-Gault equation for creatinine clearance (CLcr). Subjects were assigned to groups based on an estimated CLcr at screening as calculated using the Cockcroft-Gault equation.
Subjects were grouped according to degree of renal dysfunction: mild (CLcr ≥60 and <90 mL/min), moderate (CLcr ≥30 and <60 mL/min), or severe (CLcr ≥15 and <30 mL/min)

[2] = Earlier single and multiple ascending dose plasma and urine pharmacokinetic studies in healthy volunteers and Fabry patients; details: human, in vivo
[3] = Multiple dose simulations (2-compartment model, WinNonlin) on the renal impairment subjects of Example 1; parameters: species or system human; details: ratio to AUCPPK
Description: This example provides computer simulations of dosing the renal impairment subjects of Example 1. The key assumption was exposure characterized in non-Fabry subjects with renal impairment is the same as in Fabry patients with renal impairment. The software program was WinNonlin version 5.2 or higher. […] Steady state was assumed by 7th dose. […] QOD (every other day or 48 hrs), Q3D (every 3rd day or 72 hrs), Q4D (every 4th day or 96 hrs), and Q7D (every 7th day/once a week or 168 hrs). A 2-compartment model was used to estimate volume of distribution (Vd) and elimination rate constants from single dose data. These estimates were inputted into each molecular dose simulation regimen.

Fabry disease = experiment: Phase 3 studies (FACETS, ATTRACT) of migalastat 150 mg every other day in Fabry patients; format: in vivo, human
Description: One or more of the dosing regimens described herein are particularly suitable for Fabry patients who have some degree of renal impairment. […]00925301) was a 24-month trial, including a 6-month double-blind, placebo-controlled period, in 67 enzyme replacement therapy (ERT)-naive patients. ATTRACT (012, NCT01218659) was an active-controlled, 18-month trial in 57 ERT-experienced patients with a 12-month open-label extension (OLE). […] Accordingly, both studies included Fabry patients with normal renal function as well as patients with mild and moderate renal impairment, but neither study included patients with severe renal impairment. […] With a slowing in the ability to clear the drug from the body there can be an increasing exposure to the patient to the drug. Thus, in some embodiments a dose adjustment protocol is provided to inform physicians of the best dose taking into consideration the current clearance profile from the body. Dose adjustment is particularly difficult with a chaperone because it is an inhibitor, and a delicate balance must be reached such that the chaperone is present in amounts great enough to be therapeutic, but also not so great that the chaperone inhibits enzyme function (which would exacerbate the disease).

[4] = cited from earlier work; for Mean percent of the dose recovered in urine: single ascending dose (SAD) study
cardiac repolarization = details: 150 mg and 1250 mg single doses; cited from earlier work
[5] = AT1001-015, Mild (CLcr ≥60-<90 mL/min), N 8
[6] = AT1001-015, Moderate (CLcr ≥30-<60 mL/min), N 8
[7] = AT1001-015, Normal (CLcr ≥90 mL/min), N 8
[8] = AT1001-015, Severe (CLcr ≥15-<30 mL/min), N 8
[9] = human, plasma, po, 150 mg, single oral 150 mg migalastat HCl, non-Fabry subjects, renal function group Mild (N = 8)
[10] = human, plasma, po, 150 mg, single oral 150 mg migalastat HCl, non-Fabry subjects, renal function group Moderate (N = 8)
[11] = human, plasma, po, 150 mg, single oral 150 mg migalastat HCl, non-Fabry subjects, renal function group Normal (N = 8)
[12] = human, plasma, po, 150 mg, single oral 150 mg migalastat HCl, non-Fabry subjects, renal function group Severe (N = 8)
[13] = single oral 150 mg migalastat HCl, non-Fabry subjects, renal function group Mild (N = 8)
[14] = single oral 150 mg migalastat HCl, non-Fabry subjects, renal function group Moderate (N = 8)
[15] = single oral 150 mg migalastat HCl, non-Fabry subjects, renal function group Normal (N = 8)

In the case of `OC[C@H]1NC[C@H](O)[C@@H](O)[C@H]1O` [migalastat, (2R,3S,4R,55)-2-(hydroxymethyl) piperdine-3,4,5-triol], the “AUC0-t, Geometric mean” value [1, 5] is reported as 14374 ng·h/mL, the “AUC0-∞, Geometric mean (CV %)” value [1, 5] is reported as 14520 (30.8) hr*ng/mL and the “C96 h, Mean” value [1, 5] is reported as “BLQ”. For the same compound, the Frel [1, 5] was 1.2, the “t1/2, Mean” value [1, 5] was 7.7 h and the “tmax, Median (min-max)” value [1, 5] was 2.5 (1.5-4.0) hr. For the same compound, the “AUC0-t, Geometric mean” value [1, 6] was 22122 ng·h/mL, the “AUC0-∞, Geometric mean (CV %)” value [1, 6] was 22455 (41.2) hr*ng/mL and the Frel [1, 6] was 1.8. For the same compound, the “AUC0-t, Geometric mean” value [1, 7] was 12299 ng·h/mL, the “AUC0-∞, Geometric mean (CV %)” value [1, 7] was 12389 (24.8) hr*ng/mL and the “C96 h, Mean” value [1, 7] was “BLQ”. For the same compound, the “t1/2, Mean” value [1, 7] was 6.4 h, the “tmax, Median (min-max)” value [1, 7] was 2.5 (1.5-3.0) hr and the “AUC0-t, Geometric mean” value [1, 8] was 53098 ng·h/mL. For the same compound, the “AUC0-∞, Geometric mean (CV %)” value [1, 8] was 56174 (24.2) hr*ng/mL, the “Cmax, Geometric mean (CV %)” value [1, 8] was 2078 (43.3) ng/mL and the Frel [1, 8] was 4.5. The “AUC0-∞” value ([1]; NCA SD Data, single 150 mg migalastat HCl, Moderate (≥30-≤35) group) was 36051 and 40653 and 19723, the “AUC0-∞” value ([1]; NCA SD Data, single 150 mg migalastat HCl, Severe (<30) group) was 83312 and 54470 and 48890 and 62034 and 59538 and 65916 and 36227 and 49905 and the concentration at 48 h ([1]; human, plasma, oral, 150 mg, 150 mg dose of migalastat hydrochloride, individuals with normal kidney function, level of quantification, read-out: C48h) was less than 5 ng/mL. The concentration at 48 h ([1]; human, plasma, oral, 150 mg, AT1001-015, Mild (CLcr ≥60-<90 mL/min), N 8, read-out: C48 h, Mean) was 9.34 ng/mL, the concentration at 96 h ([1]; human, plasma, oral, 150 mg, AT1001-015, Moderate (CLcr ≥30-<60 mL/min), N 8) was 16.7 ng/mL and the concentration at 48 h ([1]; human, plasma, oral, 150 mg, AT1001-015, Normal (CLcr ≥90 mL/min), N 8, read-out: C48 h, Mean) was 5.7 ng/mL. It also gave an AUC(0-inf) ([1]; human, plasma, oral, 150 mg, NCA SD Data, single 150 mg migalastat HCl, Geometric Mean of the 11 subjects) of 47600 ng·h/mL, a concentration at 96 h ([1]; human, plasma, oral, 150 mg, AT1001-015, Severe (CLcr ≥15-<30 mL/min), N 8) of 105 ng/mL and a tmax ([1]; human, plasma, oral, 150 mg, AT1001-015, Severe (CLcr ≥15-<30 mL/min), N 8, read-out: tmax, Median (min-max)) of 4 h. The AUC(0-inf) [1, 9] was 14500 ng·h/mL, the AUC(0-t) [1, 9] was 14400 ng·h/mL and the Cmax [1, 9] was 2190 ng/mL. The AUC(0-inf) [1, 10] was 22500 ng·h/mL, the AUC(0-t) [1, 10] was 22100 ng·h/mL and the Cmax [1, 10] was 1870 ng/mL. For the same compound, the AUC(0-inf) [1, 11] was 12400 ng·h/mL, the AUC(0-t) [1, 11] was 12300 ng·h/mL and the Cmax [1, 11] was 2100 ng/mL. The AUC(0-inf) [1, 12] was 56200 ng·h/mL, the AUC(0-t) [1, 12] was 53100 ng·h/mL and the “Plasma migalastat C48h levels compared with healthy control subjects” value ([1]; moderate (predominantly CrCL <50 ml/min) and severe renal impairment) was “elevated”. For the same compound, the “Comparison to Example 1 Moderate Impairment (migalastat concentration)” value ([1]; 3 Hrs Post) was 1868, the “Comparison to Example 1 Moderate Impairment (migalastat concentration)” value ([1]; 24 Hrs Post) was 239 and the “Comparison to Example 1 Moderate Impairment (migalastat concentration)” value ([1]; 48 Hrs Post) was 64.5. The “Comparison to Example 1 Moderate Impairment (migalastat concentration)” value ([1]; Pre-dose (0 h), same value as 48 h) was 64.5, the “Comparison to Example 1 Severe Impairment (migalastat concentration)” value ([1]; 2 h) was 1549 (59.3%) and the “Comparison to Example 1 Severe Impairment (migalastat concentration)” value ([1]; 24 h) was 770 (26.5%). The “Comparison to Example 1 Severe Impairment (migalastat concentration)” value ([1]; 48 h) was 334 (38.2%), the “Cmax compared to healthy control subjects” value ([1]; single oral 150 mg migalastat HCl, across any of the renal impairment groups) was “not increased” and the “Incidence of adverse events” value ([1]; single oral 150 mg migalastat HCl, all renal function groups) was “comparable across all renal function groups”. For the same compound, the “mean plasma migalastat AUC0-∞ increase compared to healthy control subjects” value (“mean plasma migalastat AUC0-∞ increase” for short) ([1]; single oral 150 mg migalastat HCl, mild renal impairment) was 1.2 fold, the “mean plasma migalastat AUC0-∞ increase” value ([1]; single oral 150 mg migalastat HCl, moderate renal impairment) was 1.8 fold and the CL/F [1, 13] was 10.3 L/h. For the same compound, the t1/2 [1, 13] was 7.66 h, the tmax [1, 13] was 2.50 h and the CL/F [1, 14] was 6.68 L/h. For the same compound, the tmax [1, 14] was 3.00 h, the CL/F [1, 15] was 12.1 L/h and the t1/2 [1, 15] was 6.42 h. For the same compound, the tmax [1, 15] was 2.50 h, the CL/F ([1]; single oral 150 mg migalastat HCl, non-Fabry subjects, renal function group Severe (N = 8)) was 2.67 L/h and the “tmax compared to healthy control subjects” value ([1]; single oral 150 mg migalastat HCl, severe group) was “slightly delayed”. The “mean plasma migalastat AUC0-∞ increase” value ([1]; single oral 150 mg migalastat HCl, severe renal impairment) was 4.5 fold, the route of excretion [2] was “primarily excreted unchanged in urine” and the RacPPK ([3]; Geometric Mean of the 11 subjects) was 4.96. For the same compound, the RacPPK ([3]; individual subjects, Moderate (≥30-≤35) group) was 3.75 and 4.36 and 2.06, the RacPPK ([3]; individual subjects, Severe (<30) group) was 8.81 and 5.59 and 5.02 and 6.74 and 6.23 and 6.91 and 3.62 and 5.17 and the “disease progression as shown by surrogate markers” value (Fabry disease) was “slowed the progression of the disease”. The “accumulation of plasma migalastat” value ([4]; multiple ascending dose studies) was “only minimal accumulation”, the “Mean Cmax and AUC0-t values versus dose” value ([4]; oral doses from 75 mg to 1250 mg) was “increased in a dose-proportional manner” and the “Mean percent of the dose recovered in urine” value (“Mean percent” for short) ([4]; 25 mg) was 32.2%. For the same compound, the “Mean percent” value ([4]; 75 mg) was 43.0%, the “Mean percent” value ([4]; 225 mg) was 49.3% and the “Mean percent” value ([4]; 675 mg) was 48.5%. The “time to maximum concentrations” value ([4]; single-dose studies, oral, healthy volunteers and Fabry patients with normal to mildly impaired renal function (range, 1 to 6 hrs)) was “approximately 3 hours” and the “effect on cardiac repolarization” value (cardiac repolarization) was “negative”.
